In brackets after ≈: the same amount, converted by molar mass.
Legend:
Assay type in all cases: functional
[1] = system: Mycobacterium tuberculosis; assay: Antibacterial activity against extensively drug-resistant Mycobacterium tuberculosis clinical isolate H37Rv assessed as inhibition of bacterial growth
[2] = system: Mycobacterium tuberculosis; assay: Antibacterial activity against multidrug-resistant Mycobacterium tuberculosis clinical isolate H37Rv assessed as inhibition of bacterial growth
[3] = system: Mycobacterium tuberculosis; assay: Antibacterial activity against extensively drug-resistant Mycobacterium tuberculosis assessed as inhibition of bacterial growth by microplate alamar blue assay
[4] = system: Mycobacterium tuberculosis; assay: Antibacterial activity against multidrug-resistant Mycobacterium tuberculosis assessed as inhibition of bacterial growth by microplate alamar blue assay
[5] = system: Mycobacterium tuberculosis; assay: Antibacterial activity against multidrug-resistant Mycobacterium tuberculosis clinical isolate CDCT-27 assessed as inhibition of bacterial growth
[6] = system: Mycobacterium tuberculosis; assay: Antibacterial activity against multidrug-resistant Mycobacterium tuberculosis clinical isolate CDCT-16 assessed as inhibition of bacterial growth
[7] = system: Mycobacterium tuberculosis; assay: Antibacterial activity against multidrug-resistant Mycobacterium tuberculosis assessed as inhibition of bacterial growth
[8] = system: Mycobacterium tuberculosis; assay: Antibacterial activity against extensively drug-resistant Mycobacterium tuberculosis assessed as inhibition of bacterial growth
[9] = system: Mycobacterium tuberculosis; assay: Antibacterial activity against isoniazid-resistant Mycobacterium tuberculosis H37Rv assessed as inhibition of bacterial growth
[10] = system: Mycobacterium tuberculosis; assay: Antibacterial activity against rifampicin-resistant Mycobacterium tuberculosis H37Rv assessed as inhibition of bacterial growth
[11] = system: Mycobacterium tuberculosis; assay: Antibacterial activity against streptomycin-resistant Mycobacterium tuberculosis H37Rv assessed as inhibition of bacterial growth
[12] = system: Mycobacterium tuberculosis; assay: Antibacterial activity against ethambutol-resistant Mycobacterium tuberculosis H37Rv assessed as inhibition of bacterial growth
[13] = system: Mycobacterium tuberculosis; assay: Antibacterial activity against isoniazid and rifampicin-resistant Mycobacterium tuberculosis T113/09 assessed as inhibition of bacterial growth

With `CC(C)/N=c1\cc2n(-c3ccccc3)c3ccccc3nc-2cc1Nc1ccc(N2CCN(C)CC2)c(F)c1` the MIC [1] was 0.08 µg/mL (≈ 0.154 µM) and the MIC [2] was 0.08 µg/mL (≈ 0.154 µM).

`O=C(N/N=C1\C(=O)N(Cc2ccccc2)c2ccccc21)c1cnc2cc(Cl)ccc2c1O` gave an MIC [3] of 1.95 µg/mL (≈ 4.27 µM) and an MIC [4] of 0.24 µg/mL (≈ 0.525 µM).

For `Cc1nc2cc(C(F)(F)F)ccc2n1-c1ncc(C(F)(F)F)s1`, the MIC [5] was 3.68 µM (≈ 1.29 µg/mL) and the MIC [6] was 4.16 µM (≈ 1.46 µg/mL).

`COc1ccc(-c2nn(-c3ccc([N+](=O)[O-])cc3[N+](=O)[O-])c(N)c2C#N)cc1Oc1cccc(Br)c1C#N` gave an MIC [7] of 1.95 µg/mL (≈ 3.38 µM) and an MIC [8] of 3.9 µg/mL (≈ 6.77 µM).

Compound `COC(=O)c1cc(-c2ccc(OC)c(NC(=O)c3cc(-c4cccc(Cl)c4)nc4ccccc34)c2)on1` has an MIC [9] of 0.5 µg/mL (≈ 0.973 µM), an MIC [10] of 0.25 µg/mL (≈ 0.486 µM) and an MIC [11] of 0.25 µg/mL (≈ 0.486 µM). It also gave an MIC [12] of 0.25 µg/mL (≈ 0.486 µM).

In the case of `CCCCCCc1ccc(-c2cn(CC(=O)Cn3ccnc3[N+](=O)[O-])nn2)cc1`, the MIC [13] is reported as 16.3 µM (≈ 6.46 µg/mL).
